# From patent US20250361284A1, “TRANSPOSASE FUSION PROTEINS FOR USE IN CELL AND GENE THERAPY” (JULIUS-MAXIMILIANS-UNIVERSITÄT WÜRZBURG, priority 2022, published 2025)
# Key:
# [1] = system: human CD4+ T cells; assay: Gene transfer (EGFRt+ T cells, flow cytometry) with degron-SB100X in CD4+ T cells; assay type: cell-based; conditions: for gene transfer rate (EGFRt+ T cells): day 7 post-nucleofection, n=1
# Protocol: (1E) Testing the activity of IKZF3 zinc finger-based degron-SB100X fusion-transposase in human CD4+ T cells. For each condition, 2 million CD3/CD28 activated CD4+ T cells were nucleofected with minicircle DNA encoding a CD19-CAR_EGFRt SB transposon, and plasmid DNA encoding either the wild type SB transposase (SB100X) or the SB fusion-transposase (degron-SB100X). Cells were cultured either in the presence of Pomalidomide (P; 10 μM) or DMSO (D) at the time of nucleofection. At 7 days post-nucleofection, flow cytometric analysis was performed to determine the percentage of T cells that expresses the EGFRt reporter that was encoded in cis with the CD19-CAR. Top panel: Dot plots showing EGFRt expression on day 7 post-nucleofection. Bottom panel: Bar graph showing the percentage of EGFRt+ T cells on day 7 post-nucleofection (n=1).
# Anonymous healthy donor blood samples were received upon written consent to participate in research protocols approved by the Institutional Review Board of the Universitätsklinikum Würzburg (UKW). Blood samples were processed for T cells isolation as published earlier (Querques et al., 2019). Briefly, Peripheral blood mononuclear cells (PBMCs) were isolated by density centrifugation with Biocoll separating solution (Biochrom). Both CD4+ and CD8+ T cells were sorted by negative isolation approach using microbeads and magnetic associated cell sorting (MACS, Miltenyi) methods as described by the manufacturer. The isolated CD4+ and CD8+ T cells were cultured in T cell medium (RPMI-1640 with 10% (vol/vol) human serum, 2 mM L-glutamine, 100 U ml-1 penicillin-streptomycin) containing IL-2 (50 units per mL) and activated by anti-CD3/CD28 bead stimulation (Thermo Fisher). Two days post-activation, approximately 2 million T cells were nucleofected with vectors (1 μg of CD19 CAR (EGFRt)-encoding transposon as plasmid or minicircle DNA; 1 μg of mRNA encoding SB transposase) or 10 μg of hsSB protein (Querques et al., 2019) using a 4D Nucleofector (Lonza) as per the manufacturer's instructions. […]
# [2] = system: K562/CD19 target cells; assay: Bioluminescence-based cytolytic activity of CD8+ CD19 CAR T cells; assay type: cell-based, human; conditions: TMP 1000 nM
# Protocol: (5C) Specific cytolytic activity of CD8+ CD19 CAR-T cells against K562/CD19 target cells. Cytolytic activity of CD8+ CD19-CAR T cells was evaluated by co-culture with K562/CD19 or K562 target cells using a bioluminescence-based assay. The assay was setup with effector T cells (CD8+ CD19-CAR T cells) at various effector/target (E:T) ratios in 96 well flat bottom plates. Luminescence intensities were recorded at specific time points (1, 3, 5, 24 hours) using a luminometer. Specific lysis was calculated using the standard formula. Data shown are from one representative experiment.
# (5D) Specific cytolytic activity of CD8+ CD19 CAR-T cells engineered with dd-SB100X fusion transposase vs. wild type SB100X transposase. […] Data was analyzed by unpaired t-test.
# Anonymous healthy donor blood samples were received upon written consent to participate in research protocols approved by the Institutional Review Board of the Universitätsklinikum Würzburg (UKW). Blood samples were processed for T cells isolation as published earlier (Querques et al., 2019). Briefly, Peripheral blood mononuclear cells (PBMCs) were isolated by density centrifugation with Biocoll separating solution (Biochrom). Both CD4+ and CD8+ T cells were sorted by negative isolation approach using microbeads and magnetic associated cell sorting (MACS, Miltenyi) methods as described by the manufacturer. […]
compound,measurement,setting,value
degron-SB100X: IKZF3 zinc finger degron tag fused via linker to N-terminus of SB100X transposase; SEQ ID NO: 3,gene transfer rate (EGFRt+ T cells),[1]; DMSO,~46.4%
same,gene transfer rate (EGFRt+ T cells),[1]; pomalidomide 10 μM,~1.74%
"COc1cc(Cc2cnc(N)nc2N)cc(OC)c1OC [TMP, trimethoprim]",effect of TMP treatment on subsequent function of CAR T cells,[2],no adverse effects
"Nc1cccc2c1C(=O)N(C1CCC(=O)NC1=O)C2=O (stereo not shown) [pomalidomide, reference compound]",effect of pomalidomide on activity of wild type SB100X (lacking the degron tag),[1]; pomalidomide 10 μM vs DMSO,interfered with the activity of wild type SB100X
